This is an account of results in patent US20080075784A1, “Taste Making Formulation Comprising The Drug In A Dissolution-Retarded Form And/Or Cyclodextrin In A Dissolution-Enhanced Form” (Pfizer Inc., priority 2004, published 2008).

The structures appear in SMILES notation.

This series can be described thus: β-cyclodextrin dissolution rate in deionized water by refractive index. The format is physicochemical. The conditions noted are these: for β-Cyclodextrin Dissolved (%): 350 mg in 50 mL deionized water; for amount of dissolved cyclodextrin at one minute relative to the 156 μm cyclodextrin: one minute following administration. As to the method: In this example, the amount of dissolved cyclodextrin provided by several different β-cyclodextrin samples with varying ranges of particle size was determined. Samples of β-cyclodextrin with average particle sizes ranging from 116 μm to 249 μm were obtained from Roquette America of Keokuk, Iowa. In addition, a β-cyclodextrin sample with an average particle size range of about 57 μm was prepared by first dissolving the 249-μm commercially available sample in water and then lyophilizing the solution to form a fine powder. Volume weighted mean particle diameter in microns for each β-cyclodextrin sample was determined using a Horiba particle sizer.
The dissolution rates of these samples were determined as follows. A 350 mg sample of β-cyclodextrin of a given particle size was placed into 50 mL of deionized water, and the refractive index was measured at the time points noted in Table 2. Refractive index measurements were compared to a calibration curve of standards with known concentration, and the concentration of dissolved β-cyclodextrin versus time was determined.

As to `OC[C@H]1O[C@@H]2O[C@H]3[C@H](O)[C@@H](O)[C@@H](O[C@H]4[C@H](O)[C@@H](O)[C@@H](O[C@H]5[C@H](O)[C@@H](O)[C@@H](O[C@H]6[C@H](O)[C@@H](O)[C@@H](O[C@H]7[C@H](O)[C@@H](O)[C@@H](O[C@H]8[C@H](O)[C@@H](O)[C@@H](O[C@H]1[C@H](O)[C@H]2O)O[C@@H]8CO)O[C@@H]7CO)O[C@@H]6CO)O[C@@H]5CO)O[C@@H]4CO)O[C@@H]3CO` [183 μm, β-cyclodextrin], the “β-Cyclodextrin Dissolved (%)” value turned out to be 0% (time 0 min); 45% (time 1 min); 52% (time 2 min); 64% (time 3 min); 64% (time 4 min); 71% (time 5 min).
As to `OC[C@H]1O[C@@H]2O[C@H]3[C@H](O)[C@@H](O)[C@@H](O[C@H]4[C@H](O)[C@@H](O)[C@@H](O[C@H]5[C@H](O)[C@@H](O)[C@@H](O[C@H]6[C@H](O)[C@@H](O)[C@@H](O[C@H]7[C@H](O)[C@@H](O)[C@@H](O[C@H]8[C@H](O)[C@@H](O)[C@@H](O[C@H]1[C@H](O)[C@H]2O)O[C@@H]8CO)O[C@@H]7CO)O[C@@H]6CO)O[C@@H]5CO)O[C@@H]4CO)O[C@@H]3CO` [57 μm, β-cyclodextrin], the “amount of dissolved cyclodextrin at one minute relative to the 156 μm cyclodextrin” value is “about 2.4 fold”. The “β-Cyclodextrin Dissolved (%)” value (time 0 min) is on record as 0%. Under “time 1 min”, the “β-Cyclodextrin Dissolved (%)” value turned out to be 102%. In addition, under “time 2 min”, the “β-Cyclodextrin Dissolved (%)” value turned out to be 102%. The “β-Cyclodextrin Dissolved (%)” value (time 3 min) is 97%. Where the note is “time 4 min”, the “β-Cyclodextrin Dissolved (%)” value was 99%. For the same compound, the “β-Cyclodextrin Dissolved (%)” value (time 5 min) came to 100%.
Consider `OC[C@H]1O[C@@H]2O[C@H]3[C@H](O)[C@@H](O)[C@@H](O[C@H]4[C@H](O)[C@@H](O)[C@@H](O[C@H]5[C@H](O)[C@@H](O)[C@@H](O[C@H]6[C@H](O)[C@@H](O)[C@@H](O[C@H]7[C@H](O)[C@@H](O)[C@@H](O[C@H]8[C@H](O)[C@@H](O)[C@@H](O[C@H]1[C@H](O)[C@H]2O)O[C@@H]8CO)O[C@@H]7CO)O[C@@H]6CO)O[C@@H]5CO)O[C@@H]4CO)O[C@@H]3CO` [116 μm, β-cyclodextrin], for which the “amount of dissolved cyclodextrin at one minute relative to the 156 μm cyclodextrin” value is given as “about 1.4 fold”. Moreover, under “time 0 min”, the “β-Cyclodextrin Dissolved (%)” value is reported as 0%. Further, the “β-Cyclodextrin Dissolved (%)” value (time 1 min) was 58%. Further, the “β-Cyclodextrin Dissolved (%)” value (time 2 min) was determined as 76%. Besides, where the note is “time 3 min”, the “β-Cyclodextrin Dissolved (%)” value is given as 84%. In addition, the “β-Cyclodextrin Dissolved (%)” value (time 4 min) was 88%.
Consider `OC[C@H]1O[C@@H]2O[C@H]3[C@H](O)[C@@H](O)[C@@H](O[C@H]4[C@H](O)[C@@H](O)[C@@H](O[C@H]5[C@H](O)[C@@H](O)[C@@H](O[C@H]6[C@H](O)[C@@H](O)[C@@H](O[C@H]7[C@H](O)[C@@H](O)[C@@H](O[C@H]8[C@H](O)[C@@H](O)[C@@H](O[C@H]1[C@H](O)[C@H]2O)O[C@@H]8CO)O[C@@H]7CO)O[C@@H]6CO)O[C@@H]5CO)O[C@@H]4CO)O[C@@H]3CO` [249 μm, β-cyclodextrin], for which, under “one minute, value taken from Table 3”, the “cyclodextrin dissolved after one minute” value is 20 wt %. Further, the “β-Cyclodextrin Dissolved (%)” value (time 0 min) was 0%; the “β-Cyclodextrin Dissolved (%)” value (time 1 min) stood at 20%; the “β-Cyclodextrin Dissolved (%)” value (time 2 min) worked out at 26%; the “β-Cyclodextrin Dissolved (%)” value (time 3 min) turned out to be 42%; the “β-Cyclodextrin Dissolved (%)” value (time 4 min) stood at 54%; the “β-Cyclodextrin Dissolved (%)” value (time 5 min) stood at 67%.
As for `OC[C@H]1O[C@@H]2O[C@H]3[C@H](O)[C@@H](O)[C@@H](O[C@H]4[C@H](O)[C@@H](O)[C@@H](O[C@H]5[C@H](O)[C@@H](O)[C@@H](O[C@H]6[C@H](O)[C@@H](O)[C@@H](O[C@H]7[C@H](O)[C@@H](O)[C@@H](O[C@H]8[C@H](O)[C@@H](O)[C@@H](O[C@H]1[C@H](O)[C@H]2O)O[C@@H]8CO)O[C@@H]7CO)O[C@@H]6CO)O[C@@H]5CO)O[C@@H]4CO)O[C@@H]3CO` [156 μm, β-cyclodextrin], the “amount of dissolved cyclodextrin provided by crystalline cyclodextrin” value (one minute after administration) is recorded as “about 41%”. For the same compound, the “β-Cyclodextrin Dissolved (%)” value reads like this: (time 0 min) 0%; (time 1 min) 41%; (time 2 min) 81%; (time 3 min) 96%; (time 4 min) 92%; (time 5 min) 95%.
